Among the data in patent US20030190325A1, “Novel peroxiredoxin defense system from mycobacterium tuberculosis” (priority 2002, published 2003) are IC50, Target and Ki values, retold here.

SMILES strings stand for the structures. Read-outs that look alike come from different tables or passages of the source.

The target in one assay is T1, Lpd, SucB, AhpD (Mycobacterium tuberculosis, UniProt P9WHH9+P9WIS7+P9WQB5).
T1 construct: Lpd and SucB ORFs were amplified by PCR from M. tuberculosis H37Rv genomic DNA; The AhpD open reading frame (ORF) was amplified by PCR with engineered 5′ NdeI and 3′ NheI sites and cloned into pET11c; made in house; host or cells: E. coli BL21(DE3), pET11c
T1 sequence (P9WHH9 1-464): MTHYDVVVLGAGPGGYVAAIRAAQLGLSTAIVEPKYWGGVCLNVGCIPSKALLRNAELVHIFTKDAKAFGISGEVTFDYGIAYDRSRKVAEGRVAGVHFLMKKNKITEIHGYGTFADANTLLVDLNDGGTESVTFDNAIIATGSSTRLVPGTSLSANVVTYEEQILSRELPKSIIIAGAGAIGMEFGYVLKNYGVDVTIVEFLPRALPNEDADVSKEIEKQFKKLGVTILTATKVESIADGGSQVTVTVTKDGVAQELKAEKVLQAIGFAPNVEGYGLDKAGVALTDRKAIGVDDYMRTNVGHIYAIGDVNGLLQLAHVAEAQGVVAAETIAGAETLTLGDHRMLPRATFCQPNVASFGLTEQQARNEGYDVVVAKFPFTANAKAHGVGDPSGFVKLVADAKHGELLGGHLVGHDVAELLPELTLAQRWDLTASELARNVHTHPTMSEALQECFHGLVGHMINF
T1 sequence (P9WIS7 1-553): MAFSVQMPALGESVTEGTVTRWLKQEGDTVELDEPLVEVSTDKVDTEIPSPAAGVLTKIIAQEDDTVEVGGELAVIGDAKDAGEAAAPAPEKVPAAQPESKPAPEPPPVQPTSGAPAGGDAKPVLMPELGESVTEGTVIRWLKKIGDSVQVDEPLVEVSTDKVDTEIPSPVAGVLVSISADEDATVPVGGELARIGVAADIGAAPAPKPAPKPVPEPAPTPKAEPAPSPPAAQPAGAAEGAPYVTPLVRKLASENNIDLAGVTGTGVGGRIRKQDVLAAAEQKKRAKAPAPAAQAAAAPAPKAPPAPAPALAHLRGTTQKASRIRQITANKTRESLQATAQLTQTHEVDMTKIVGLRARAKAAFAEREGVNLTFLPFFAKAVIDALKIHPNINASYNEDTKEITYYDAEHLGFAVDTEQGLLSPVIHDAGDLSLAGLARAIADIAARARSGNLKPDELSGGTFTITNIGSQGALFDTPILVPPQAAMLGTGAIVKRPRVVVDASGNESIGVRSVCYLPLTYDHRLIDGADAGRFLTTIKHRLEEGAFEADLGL
T1 sequence (P9WQB5 1-177): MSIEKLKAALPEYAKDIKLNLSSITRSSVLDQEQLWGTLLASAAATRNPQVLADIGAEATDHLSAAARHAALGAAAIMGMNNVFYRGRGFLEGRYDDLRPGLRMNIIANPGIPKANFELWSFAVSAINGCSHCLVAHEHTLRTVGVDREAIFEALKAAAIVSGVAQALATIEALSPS
Kind of assay: DTNB screening assay (Lpd/SucB/AhpD protein mixture). The assay is classed as biochemical. As to conditions: for Target: which of the 3 enzymes (AhpD, Lpd, SucB) is inhibited, and mode of inhibition. On the procedure:
The screen was performed in Falcon Microtest 384-well 30 μl assay plates using the DTNB (5,5′-dithiobis-(2-nitrobenzoic acid)) assay.
The protein mixture (200 nM Lpd, 350 nM SucB, 36 nM AhpD) was dispensed into each well in 10 μl using a multi-channel pump dispenser. Compounds were added to the protein mix by a single dip (1 nl) with a pin-transfer robot. Plates with the protein mix and added compounds were incubated on a shaker for 30 min at room temperature. The concentration of compounds during incubation was 50 μM. Reaction mixture (200 μM NADH, 150 μM DTNB in 100 mM potassium phosphate, pH 7.0, 2 mM EDTA) was added to each well in 10 μl after pre-incubation and the plate was read at 405 nm for “time 0 min” values. Plates were incubated on a shaker for 30 min at room temperature to complete the reaction and were read at 405 nm for “time 30 min.” “Time 0 min” values were subtracted from “time 30 min” values and were taken as an end-point value for the assay. Control wells contained only protein and reaction mixtures without any compounds added and were taken as 100% activity values. The final concentrations of all components during the reaction were as follows: Lpd, 100 nM; SucB, 175 nM; AhpD, 18 nM; NADH, 100 μM; DTNB, 75 μM; potassium phosphate, 50 mM; EDTA, 1 mM; compounds, 25 μM.

The target of another assay is T2, AhpD (Mycobacterium tuberculosis, UniProt P9WQB5).
T2 construct: The AhpD open reading frame (ORF) was amplified by PCR with engineered 5′ NdeI and 3′ NheI sites and cloned into pET11c; made in house; host or cells: E. coli BL21(DE3), pET11c
T2 sequence (P9WQB5 1-177): T1 sequence (P9WQB5 1-177)
Kind of assay: Inhibition constant for the enzyme identified as target: AhpD. It counts as biochemical.

`O=C(O)c1ccc(N2C(=O)/C(=C/c3ccc(-c4ccc(Br)cc4)o3)C=C2c2ccccc2)cc1` [2150-0146]: the IC50 at Lpd, SucB, AhpD (DTNB assay, 100 nM Lpd, 175 nM SucB, 18 nM AhpD, 100 μM NADH, 75 μM DTNB, pH 7.0, read-out: IC50) stood at 4.2 µM.
Regarding `Cc1cc(C)cc(/N=C2/NC(=O)/C(=C\c3cc(Br)c(O)c([N+](=O)O)c3)S2)c1` [2368-0687], at Lpd, SucB, AhpD, the IC50 was 10.5 µM and the Target entry was “AhpD (Com- pet Inhib.)”. For the same compound, the affinity at AhpD corresponds to a Ki of 5 µM.
In the case of `O=C(O)CCN1C(=O)/C(=C\c2ccc(-c3cccc(C(F)(F)F)c3)o2)SC1=S` [2556-0286], at Lpd, SucB, AhpD, the IC50 worked out at 4.4 µM and the Target entry is reported as “SucB (Com- pet Inhib.)”.
Consider `O=C(O)CN1C(=O)/C(=C\c2ccc(-c3cccc(Cl)c3Cl)o2)SC1=S` [3229-2113], for which, on Lpd, SucB, AhpD, the 50% inhibitory concentration (IC50) stood at 8.2 µM and the Target entry is “SucB (Com- pet Inhib.)”.

As a reminder, the IC50 is the concentration that inhibits the measured activity by half. One may read the Ki as a dissociation constant, usually derived from enzyme kinetics or from competition with a known ligand. A lower Ki goes with tighter binding.
